In data set [1] the test system is adult male rats. As to the kind of experiment: Postincisional hypersensitivity model of postoperative pain (paw incision, withdrawal threshold to von Frey filaments). To be noted: intrathecal (i.t.), 24 h after paw incision surgery. It is filed as in vivo, rat. As to the method: Animal preparation: Following Animal Care and Use Committee approval, an intrathecal (i.t.) catheter with tip in the lumbar space is inserted as previously described in adult male rats weighing 250 g (Yaksh and Rudy, Physiol Behav. 1976, 7, 1032-1036). One week following the insertion of the i.t. catheter, paw incision surgery is performed as previously described (Brennan et al., Pain 1996, 64, 493-501). Briefly, animals are anesthetized with halothane, and a 1-cm long incision is made in the plantar aspect of the left hind paw starting 0.5 cm from the edge of the heel toward the toe after sterile preparation with 70% ethanol. The plantaris muscle is elevated and incised longitudinally. The wound is closed with 2 mattress sutures of 5.0 silk. Subsequently, withdrawal threshold to von Frey filaments is determined one day after surgery (Chaplan et al., J. Neurosci. Methods, 1994, 53, 55-63). For all testing but pilot dose ranging studies, investigators are blinded to study drug administration. A cut off value of 22 g is used. […]
Single drug injection: For single drug administration, a volume containing 5 μL drug is used, followed by 10 μL of saline. […] Dose response curves are first constructed, and ED40 values for single drugs are then determined at the time of peak effect.
Drug interaction: For the combination of T-62 with morphine and NBQX, two injections are performed since the time of peak effect for morphine and NBQX is 30 min earlier than that of T-62 (T-62 is injected 30 min before drug injections). Paw withdrawal thresholds are determined before surgery, before drug injection, and 30, 60, 90, 120, 150, 180, and 210 min after the second drug injection. […] The dose response curves are then constructed for the combined drugs, and the ED40 values of the combined drugs are calculated at the time point of peak effect. […]
Data analysis: Data are presented as mean ±S.E. Withdrawal threshold data are analyzed by two-way analysis of variance followed by Fisher's LSD test. […] Isobolograms are statistically analyzed by student T test.

The conditions of data set [2]: cited from earlier work.
Data set [3] deals with male Sprague-Dawley rats. Put plainly: Neuropathic pain model (Chung model, spinal nerve ligation, withdrawal threshold to von Frey filaments). It is filed as in vivo, rat. To be noted: Chung model of chronic neuropathic pain, FIG. 8; for anti-allodynic effects: intrathecal single injection. From the text:
Spinal Nerve Ligation: After Animal Care and Use Committee approval, male Sprague-Dawley rats (Harlan, Indianapolis, Ind., USA) weighing 180-200 g undergo anesthesia as previously described by Kim and Chung (Pain 1992, 50, 355-363). Briefly, under general anesthesia with inhalational halothane, the left L5 and L6 spinal nerves are identified through a small laminotomy and tightly ligated. Approximately one week later, an intrathecal catheter is placed under general anesthesia by insertion under direct vision of a polyethylene catheter through a small slit in the dura at the cisterna magnum, and advanced 8.5 cm such that the catheter tip resides in the lower lumbar intrathecal space. Animals are studied approximately one week later. Ligation of the lumbar spinal nerves results in a primarily unilateral increase in the sensitivity to light touch on the operated side. Sensitivity is assessed via application of calibrated von Frey filaments. The withdrawal threshold is determined using an up down method as previously described by Chaplan et al. (J. Neurosci. Methods 1994, 53, 55-63).
Experimental Design: Animals receive, at least 4 weeks after spinal nerve ligation surgery, and at least 1 week after intrathecal catheter insertion, single injections of vehicle (β-cyclodextrin) or the drug substance, using a randomized and blinded protocol. Withdrawal thresholds are determined at intervals for up to 20 hr after injection.

SMILES strings stand for the structures. “Also recorded” adds a separate entry of the source.

Take `CN1CC[C@]23c4c5ccc(O)c4O[C@H]2[C@@H](O)C=C[C@H]3[C@H]1C5` [Morphine, morphine, reference compound]: in data set [1], the “anti-hypersensitivity effect (reduction of mechanical hypersensitivity)” value was “reduces mechanical hypersensitivity in a time and dose dependent manner”.

With `NS(=O)(=O)c1cccc2c1c([N+](=O)[O-])cc1nc(O)c(O)nc12` [NBQX, 2,3-dihydroxy-6-nitro-7-sulfamoylbenzo(f)quinoxaline, reference compound], in data set [1], the “anti-hypersensitivity effect (reduction of mechanical hypersensitivity)” value is “reduces the mechanical hypersensitivity in a time and dose dependent manner”.

For the compound `Nc1sc2c(c1C(=O)c1ccc(Cl)cc1)CCCC2` [T-62, (2-amino-4,5,6,7-tetrahydrobenzo[b]thiophen-3-yl)(4-chlorophenyl)methanone], the “effect on inflammatory and neuropathic pain” value in data set [2] (literature (Li et al. 2003, Li et al. 2002, Pan et al. 2001; US 6,248,774, US 6,489,356)) was “reduce inflammatory and neuropathic pain”. For the same compound, in data set [2] (literature), the oral efficacy result is on record as “orally effective”. The adverse side effects result in data set [2] (literature, compared with administration of adenosine) is listed as “avoid of the adverse side effects associated with administration of adenosine”. The anti-allodynic effects result in data set [3] is recorded as “dose-dependent anti-allodynic effects”. The “anti-hypersensitivity effect (reduction of mechanical hypersensitivity)” value in data set [1] is “reduced mechanical hypersensitivity in a time dependent manner; also recorded: modest effect”.

`Nc1sc2c(c1C(=O)c1ccccc1)CCS2` [formula (Ib)]: in data set [3], the anti-allodynic effects entry was “dose-dependent anti-allodynic effects”.

Take `Nc1sc2c(c1C(=O)c1cccc3ccccc13)CCC2` [formula (Ic)]: in data set [3], the “relative potency among the three enhancers” value is reported as “most potent enhancer of the three agents” and the anti-allodynic effects entry was “dose-dependent anti-allodynic effects”.

Values taken from patent publication US20080108622A1, “COMBINATION THERAPY FOR THE TREATMENT OF PAIN” (priority 2006, published 2008).
